Laboratory results as given in ChEMBL document CHEMBL3603831, “Discovery of Potent 17β-Hydroxywithanolides for Castration-Resistant Prostate Cancer by High-Throughput Screening of a Natural Products Library for Androgen-Induced Gene Expression Inhibitors” (J Med Chem, 2015).
pIC50: −log10 of the molar value. The source made the active and inactive calls. The rule behind the calls is not given here.

Tests used:
SF-268 = test: Cytotoxicity against human SF268 cells assessed as inhibition of cell proliferation/survival after 72 hrs by resazurin dye reduction assay; format: functional, cell-based; details: SF-268, 72 h
[1] = biological target: T1, Androgen receptor (Homo sapiens) (UniProt P10275); test: Competitive inhibition of androgen binding to androgen receptor (unknown origin) by invitrogen polar screen assay
T1 sequence (whole entry): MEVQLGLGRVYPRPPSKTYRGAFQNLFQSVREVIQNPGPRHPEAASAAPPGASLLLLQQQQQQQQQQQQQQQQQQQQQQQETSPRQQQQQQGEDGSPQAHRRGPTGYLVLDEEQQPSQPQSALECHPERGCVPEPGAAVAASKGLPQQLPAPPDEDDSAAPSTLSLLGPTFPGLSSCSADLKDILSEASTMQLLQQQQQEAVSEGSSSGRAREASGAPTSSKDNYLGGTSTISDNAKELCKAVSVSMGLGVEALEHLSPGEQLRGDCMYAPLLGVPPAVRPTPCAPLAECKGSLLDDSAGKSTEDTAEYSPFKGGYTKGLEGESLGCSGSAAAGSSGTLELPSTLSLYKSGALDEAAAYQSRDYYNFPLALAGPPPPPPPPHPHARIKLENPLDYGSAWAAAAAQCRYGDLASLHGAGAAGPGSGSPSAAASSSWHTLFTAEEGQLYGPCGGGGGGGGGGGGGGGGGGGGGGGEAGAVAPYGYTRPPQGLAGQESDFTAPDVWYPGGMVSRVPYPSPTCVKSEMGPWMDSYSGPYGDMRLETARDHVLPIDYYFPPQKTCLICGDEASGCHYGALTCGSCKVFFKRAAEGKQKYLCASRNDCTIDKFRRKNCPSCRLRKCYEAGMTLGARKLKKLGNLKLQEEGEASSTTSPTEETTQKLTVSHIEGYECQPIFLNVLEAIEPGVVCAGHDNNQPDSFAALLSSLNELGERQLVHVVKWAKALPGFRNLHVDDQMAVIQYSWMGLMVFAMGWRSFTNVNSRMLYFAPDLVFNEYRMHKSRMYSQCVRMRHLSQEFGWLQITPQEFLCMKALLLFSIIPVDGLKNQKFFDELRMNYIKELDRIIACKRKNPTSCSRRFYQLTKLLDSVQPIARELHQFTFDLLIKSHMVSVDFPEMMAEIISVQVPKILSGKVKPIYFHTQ

Androgen receptor [2] = biological target: T2, Androgen receptor (Homo sapiens, UniProt P10275); test: Inhibition of androgen receptor in human LNCAP cells assessed as inhibition of DHT-induced KLK3 gene expression by Array Plate assay; format: cell-based
T2 sequence (P10275 whole entry): T1 sequence (whole entry)

PC-3 [3] = test: Antitumor activity against human PC3 cells xenografted in SCID mouse assessed as tumor growth inhibition at 50 mg/kg, ip qd administered for 5 days followed by 2 days rest and again dose repetition up to 30 days measured after day 30 post dose relative to vehicle-treated control; format: functional; details: PC-3, ip, read-out: TGI
Androgen receptor [4] = biological target: T2, Androgen receptor; test: Inhibition of androgen receptor in human LNCAP cells assessed as inhibition of DHT-induced SPDEF gene expression by Array Plate assay; format: cell-based
PC-3 [5] = test: Cytotoxicity against human PC3 cells assessed as inhibition of cell proliferation/survival after 72 hrs by resazurin dye reduction assay; format: functional, cell-based; details: PC-3, 72 h
[6] = Toxicity in SCID mouse assessed as change in body weight measured every 3 to 5 days up to 18 days; format: organism-based; details: in vivo
Androgen receptor [7] = biological target: T2, Androgen receptor; test: Inhibition of androgen receptor in human LNCAP cells assessed as inhibition of DHT-induced KLK2 gene expression by Array Plate assay; format: cell-based
HFF = test: Cytotoxicity against HFF assessed as inhibition of cell proliferation/survival after 72 hrs by resazurin dye reduction assay; format: cell-based; details: Homo sapiens
MCF7 = test: Cytotoxicity against human MCF7 cells assessed as inhibition of cell proliferation/survival after 72 hrs by resazurin dye reduction assay; format: functional, cell-based; details: MCF7, 72 h
LNCaP [8] = test: Cytotoxicity against human LNCAP cells assessed as inhibition of cell proliferation/survival after 72 hrs by resazurin dye reduction assay; format: functional, cell-based
NCI-H460 = test: Cytotoxicity against human NCI-H460 cells assessed as inhibition of cell proliferation/survival after 72 hrs by resazurin dye reduction assay; format: functional, cell-based; details: NCI-H460, 72 h
Mus musculus [9] = test: Toxicity in SCID mouse xenografted with human PC3 cells assessed as mortality at 26 to 40 mg/kg, ip for five times per week up to two weeks; format: organism-based, PC-3; details: in vivo
Plasma [10] = test: Drug uptake in SCID mouse plasma at 50 mg/kg, ip; format: ADME, organism-based; details: in vivo
Plasma [11] = test: Drug uptake in SCID mouse plasma at 50 mg/kg administered through gastric gavage; format: ADME, organism-based; details: in vivo, po
PC-3 [12] = test: Antitumor activity against human PC3 cells xenografted in ip dosed SCID mouse assessed as tumor growth inhibition for five times per week up to two weeks measured twice per week; format: functional, organism-based
Serum = test: Drug uptake in SCID mouse serum at 25 mg/kg, sc administered in trappsol measured after 1 hr; format: ADME, organism-based; details: in vivo
LNCaP [13] = test: Antitumor activity against human LNCAP cells xenografted in sc dosed SCID mouse assessed as tumor growth inhibition administered in trappsol for five times per week up to two weeks measured twice per week; format: functional, organism-based
PC-3 [14] = test: Antitumor activity against human PC3 cells xenografted in SCID mouse assessed as tumor growth inhibition at 26 to 40 mg/kg, ip coadministered with taxotere for five times per week up to two weeks measured twice per week; format: functional, organism-based
[15] = Toxicity in sc dosed SCID mouse administered in trappsol once per day for 5 days followed by 2 days of rest and again dose repetition; format: organism-based; details: in vivo
[16] = Tmax in SCID mouse at 50 mg/kg, ip; format: ADME, organism-based; details: in vivo
LNCaP [17] = test: Antitumor activity against human LNCAP cells xenografted in SCID mouse assessed as tumor growth inhibition at 15 to 25 mg/kg, sc coadministered with taxotere in trappsol for five times per week up to two weeks measured twice per week; format: functional, organism-based
Mus musculus [18] = test: Toxicity in SCID mouse xenografted with human LNCAP cells assessed as mortality at 15 to 25 mg/kg, sc administered in trappsol for five times per week up to two weeks; format: organism-based; details: in vivo
PC-3 [19] = test: Antitumor activity against human PC3 cells xenografted in SCID mouse assessed as tumor growth inhibition at 12 mg/kg, iv administered for five times per week up to two weeks measured twice per week; format: functional, organism-based

pIC50 (Androgen receptor [2])	pIC50 (Androgen receptor [4])	pIC50 (Androgen receptor [7])	Structure (SMILES)	pIC50 (SF-268)	pIC50 (PC-3 [5])	pIC50 (HFF)	pIC50 (MCF7)	pIC50 (LNCaP [8])	pIC50 (NCI-H460)	further results
5.85	5.92	6.21	CC(=O)OC[C@]12CC[C@H]3[C@@H](CC=C4C=CCC(=O)[C@@]43C)[C@]1(O)[C@@H](OC(C)=O)C[C@@]2(O)[C@@](C)(O)[C@H]1CC(C)=C(C)C(=O)O1	< 5.30	< 5.30	< 5.30	< 5.30	5.70	< 5.30	
5.45	5.57	5.75	CC(=O)OC[C@]12CC[C@H]3[C@@H](CC=C4CC=CC(=O)[C@@]43C)[C@]1(O)[C@@H](OC(C)=O)C[C@@]2(O)[C@@](C)(O)[C@H]1CC(C)=C(C)C(=O)O1	< 5.30	5.70	< 5.55	< 5.30	6.36	5.70	
			CC1=C(CO)C(=O)O[C@@H]([C@@H](C)[C@H]2CC[C@H]3[C@@H]4C[C@H]5O[C@]56[C@@H](O)C=CC(=O)[C@]6(C)[C@H]4CC[C@]23C)C1 [WITHAFERIN A]	> 6.40	6.39	< 5.17	6.24	6.06	> 6.40	
5.45	5.48	5.62	CC(=O)OC[C@]12CC[C@H]3[C@@H](CC=C4C=CCC(=O)[C@@]43C)[C@]1(O)CC[C@@]2(O)[C@@](C)(O)[C@H]1CC(C)=C(C)C(=O)O1	< 5.30	5.51	< 5.51	< 5.30	5.96	5.41	
			CC(=O)OC[C@]12CC[C@H]3[C@@H](CC=C4CC=CC(=O)[C@@]43C)[C@]1(O)[C@@H](OC(C)=O)C[C@@]2(O)[C@@](C)(O)[C@H]1CC(CO)=C(C)C(=O)O1	< 5.30	< 5.30		< 5.30	5.48	< 5.30	
			CC(=O)OC[C@]12CC[C@H]3[C@@H](C[C@@H]4O[C@@]45CC=CC(=O)[C@]35C)[C@]1(O)CC[C@@]2(O)[C@@](C)(O)[C@H]1CC(C)=C(C)C(=O)O1	< 5.30	5.92	< 4.92	5.92	6.49	5.68	
			COc1cccc2c1C(=O)c1c(O)c3c(c(O)c1C2=O)C[C@@](O)(C(=O)CO)C[C@@H]3O[C@H]1C[C@H](N)[C@H](O)[C@H](C)O1 [DOXORUBICIN]	6.35	6.60		6.49			
			CC(=O)OC[C@]12CC[C@H]3[C@@H](C[C@H]4O[C@]45CC=CC(=O)[C@]35C)[C@]1(O)CC[C@@]2(O)[C@@](C)(O)[C@H]1CC(C)=C(C)C(=O)O1	5.59	7.05	< 5.51	6.68	7.70	6.10	Activity (Mus musculus [9]): Non-toxic; Drug uptake (Plasma [10]): Active; Drug uptake (Plasma [11]): Not Active; TGI (PC-3 [12]): Dose-dependent effect; Drug uptake (Serum): Active; TGI (LNCaP [13]): Dose-dependent effect; TGI (PC-3 [14]): Active; MTD [15]: 25 mg/kg; Tmax [16]: 15 min; TGI (LNCaP [17]): Active; Activity (Mus musculus [18]): Non-toxic
			CC(=O)O[C@@]12CO[C@@H]1C[C@H](O)[C@@]1(C)C(=O)[C@H](O)C3=C(C)[C@@H](OC(=O)[C@H](O)[C@@H](NC(=O)OC(C)(C)C)c4ccccc4)C[C@@](O)([C@@H](OC(=O)c4ccccc4)[C@H]21)C3(C)C							TGI (PC-3 [19]): Active

Structure (SMILES)	pIC50 (Androgen receptor [2])	pIC50 (Androgen receptor [4])	pIC50 (Androgen receptor [7])	pIC50 (SF-268)	pIC50 (PC-3 [5])	pIC50 (HFF)	pIC50 (MCF7)	pIC50 (LNCaP [8])	pIC50 (NCI-H460)	further results
CC(=O)OC[C@]12CC[C@H]3[C@@H](CC=C4CC=CC(=O)[C@@]43C)[C@]1(O)CC[C@@]2(O)[C@@](C)(O)[C@H]1CC(C)=C(C)C(=O)O1	6.12	6.11	6.24	5.47	6.89	< 5.51	5.72	7.15	5.92	inhibition [1]: inactive; inhibition in vivo at 50 mg/kg (PC-3 [3]): 66%; MTD at 18 days [6]: 50 mg/kg
